In patent US11331269B2, “Methods and compositions targeting lung microbiota and its responding immune pathways for lung cancer treatment” (Massachusetts Institute of Technology, priority 2018, dated 2022):

Legend:
[1] = system: IL-17 producing γδ T cells; test: Flow cytometry of IL-17 producing γδ T cells in tumor-bearing lung; type: in vivo, mouse; settings: KP mice, antibiotics in drinking water
Protocol: Mice were injected retro-orbitally with a PE-CF594 conjugated anti-CD45 antibody (30-F11, BD Bioscience) 2 minutes prior to euthanasia to label the immune cells in the circulation. Lungs were collected, cut into small pieces, and digested with 125 U/mL collagenase IV (Worthington Biochemical) and 40 U/mL DNase I (Roche) for 30 minutes at 37° C. Dissociated lung tissue was then filtered with a 100 μm cell strainer. Spleen and lymph node samples were ground and passed through a 100 μm cell strainer. After blocking FcgRIII/II with an anti-CD16/CD32 mAb (eBioscience), single cell suspensions were stained with the following antibodies: CD45.2 (104), CD45.1 (A20), Ly6G (1A8), CD11b (M1/70), TCRβ (H57-597), TCRγδ (GL3 or UC7-13D5), CD3 (17A2), CD4 (RM4-5), CD8 (53-6.7), Vγ1 (Vg1.1, 2.11), Vγ4 (Vγ2, UC3-10A6), IFN-γ (XMG1.2), IL-17A (TC11-18H10.1), TNF-α (MP6-XT22), IL-17F (ebio18F10), CD44 (IM7), CD27 (LG.3A10), CD69 (H1.2F3), PD-1 (29F. 1A12), PD-L1 (10F.9G2), T-bet (eBio4B10), RORγt (B2D), PLZF (Mags.21F7) and Ki67 (B56) purchased from eBioscience, BD or Biolegend. […] Flow cytometry was performed on the LSR II or LSRFortessa (BD), and data were analyzed by the FlowJo software (Treestar). […]
Flow cytometry and FACS was performed as described above in Example 3. […] Flow cytometry was performed on the LSR II or LSRFortessa (BD), and data were analyzed by the FlowJo software (Treestar). […]

[2] = system: bacterial abundance in the gut; test: Fecal bacterial load by 16S rDNA-based qPCR; type: in vivo, mouse; settings: SPF KP mice, metronidazole alone in drinking water
Protocol: Fecal pellets were collected from the colon at the time of tissue harvest. BALF and fecal samples were processed for DNA isolation using a previously established protocol (Palm, et al., Cell. 158(5):1000-1010 (2014); Turnbaugh, et al., Nature. 457(7228):480-4 (2009)). […] E. coli genomic DNA was used as a standard, with samples at 1, 0.1, 0.01, and 0.001 ng per reaction used to create a standard curve.

IL-17A = IL-17A ELISA in BALF or serum of KP mice; type: in vivo, mouse; settings: antibiotics in drinking water
Protocol: IL-17 levels in serum or bronchoalveolar lavage fluid were measured using a mouse IL-17A ELISA kit (eBioscience) according to the manufacturer's instructions.
IL-17 levels were measured using a mouse IL-17A ELISA kit (eBioscience) according to the manufacturer's instructions.
IL-17A levels were measured using a mouse IL-17A ELISA kit (eBioscience) according to the manufacturer's instructions.

[3] = system: lung adenocarcinoma in KP mice; test: Tumor development (tumor burden/grade by histology) in autochthonous KP GEM model of lung adenocarcinoma; settings: SPF KP mice, metronidazole alone (1 g/L) in drinking water starting 5 weeks post tumor initiation (FIG. 2E)
Source text: The genetically-engineered mouse (GEM) model of human LUAD has previously been described (DuPage, et al.). In this model, the mice harbor conditional alleles of Kras^LSL-G12D and p53^flox/flox (KP mice). Upon intratracheal infection with adenoviral vectors expressing the Cre-recombinase under the control of the Sftpc promoter, oncogenic KrasG12D is activated and the tumor suppressor p53 is deleted in lung epithelial cells to induce lung adenoma and adenocarcinoma.
Germ-free KP mice were housed in gnotobiotic isolators, which were sampled every 2 weeks and confirmed negative for bacterial and fungal contaminants by culture, fecal Gram stain, and PCR using universal 16S rRNA primers. […]
Tumor-bearing lung lobes and a portion of the spleen were fixed in 4% paraformaldehyde overnight and embedded in paraffin. […] Digitally scanned images of H&E or Ki67-stained slides were created with the Aperio ScanScope AT2 at 20× magnification and analyzed with the Aperio's WebScope software. For tumor burden quantification, tumor regions were outlined and the percentage of tumor area relative to total lung area was calculated for each mouse. For Ki67 index, tumor cells were classified based on the intensity of the nuclear Ki67 staining from 0 to 3+ by using a built-in Nuclear algorithm in the Webscope, and the percentage of nuclei with intense nuclear staining (3+) in total nuclei was calculated. […]

[4] = system: KP tumor-derived cell lines; test: In vitro cell proliferation of tumor cell lines derived from primary lung tumors of KP mice; type: cell-based, mouse; settings: live cells 72 hours post treatment
Protocol: Tumor cell lines were derived from primary lung tumors of KP mice, and maintained in DMEM medium (Gibco) supplemented with 10% FBS (Sigma). Cells were serum-starved for 24 hours (1% FBS) before treated with recombinant human amphiregulin (Sigma-Aldrich) or recombinant mouse IL-22 (R&D Systems) at the indicated dose, or left untreated as controls. The number of live cells was determined 72 hours post treatment by counting the Trypan Blue (Gibco) negative cells or through the CellTiter-Glo Luminescent Cell Viability Assay (Promega) according to the manufacturer's instructions.

In the case of `Cc1ncc([N+](=O)[O-])n1CCO` [metronidazole], the “abundance of IL-17 producing γδ T cells in the tumor-bearing lung” value [1] is reported as “dramatically decreased”, the “overall bacterial abundance in the gut” value [2] is reported as “without substantially reducing the overall bacterial abundance in the gut” and the “IL-17A levels in the BALF or serum” value (IL-17A) is reported as “lower IL-17A levels”. The “tumor growth in the lung (tumor burden)” value [3] was “effectively suppressed tumor growth in the lung”.

B1: recombinant IL-22: recombinant mouse IL-22 (R&D Systems) (protein, UniProt Q9JJY9 34-179, looked up)
Interleukin-22: LPVNTRCKLEVSNFQQPYIVNRTFMLAKEASLADNNTDVRLIGEKLFRGVSAKDQCYLMKQVLNFTLEDVLLPQSDRFQPYMQEVVPFLTKLSNQLSSCHISGDDQNIQKNVRRLKETVKKLGESGEIKAIGELDLLFMSLRNACV
B1 was tested, and the “tumor cell proliferation in vitro” value ([4]; recombinant mouse IL-22, serum-starved KP tumor cell lines) was “stimulated tumor cell proliferation in vitro”.

B2: recombinant amphiregulin: recombinant human amphiregulin (Sigma-Aldrich), EGFR ligand (protein, UniProt P15514 101-187, looked up)
Amphiregulin: SVRVEQVVKPPQNKTESENTSDKPKRKKKGGKNGKNRRNRKKKNPCNAEFQNFCIHGECKYIEHLEAVTCKCQQEYFGERCGEKSMK
With B2 the “proliferation of KP tumor-derived cell lines” value ([4]; recombinant human amphiregulin, serum-starved cells) was “promoted proliferation of KP tumor-derived cell lines in a dose-dependent fashion”.
